In ChEMBL document CHEMBL1151626, “Diphenylamine, an antihyperglycemic agent from onion and tea” (1984):

Tests used:
Type in all cases: functional
Design in all cases: scale not given: the % may be the effect or the level left
[1] = test system: Oryctolagus cuniculus; assay: Hypoglycemic activity in glucose-fed rabbit assessed as reduction of plasma glucose at 10 mg/kg, po after 1 hr
[2] = test system: Oryctolagus cuniculus; assay: Hypoglycemic activity in glucose-fed rabbit assessed as reduction of plasma glucose at 10 mg/kg, po after 2.5 hrs
[3] = test system: Oryctolagus cuniculus; assay: Hypoglycemic activity in rabbit assessed as reduction of plasma glucose at 10 mg/kg, po after 2 hrs
[4] = test system: Oryctolagus cuniculus; assay: Hypoglycemic activity in fasting rabbit assessed as reduction of plasma glucose at 10 mg/kg, po
[5] = test system: Oryctolagus cuniculus; assay: Hypoglycemic activity in glucose-fed rabbit assessed as reduction of plasma glucose at 10 mg/kg, po after 0.5 hr
[6] = test system: Oryctolagus cuniculus; assay: Hypoglycemic activity in glucose-fed rabbit assessed as reduction of plasma glucose at 10 mg/kg, po after 2 hrs
[7] = test system: Oryctolagus cuniculus; assay: Hypoglycemic activity in glucose-fed rabbit assessed as reduction of plasma glucose at 10 mg/kg, po after 1.5 hrs
[8] = test system: Oryctolagus cuniculus; assay: Hypoglycemic activity in glucose-fed rabbit assessed as reduction of plasma glucose at 50 mg/kg, po after 1 hr
[9] = test system: Oryctolagus cuniculus; assay: Hypoglycemic activity in glucose-fed rabbit assessed as reduction of plasma glucose at 50 mg/kg, po after 2 hrs
[10] = test system: Oryctolagus cuniculus; assay: Hypoglycemic activity in fasting rabbit assessed as reduction of plasma glucose at 50 mg/kg, po
[11] = test system: Oryctolagus cuniculus; assay: Hypoglycemic activity in glucose-fed rabbit assessed as reduction of plasma glucose at 50 mg/kg, po after 2.5 hrs
[12] = test system: Oryctolagus cuniculus; assay: Hypoglycemic activity in glucose-fed rabbit assessed as reduction of plasma glucose at 50 mg/kg, po after 0.5 hr
[13] = test system: Oryctolagus cuniculus; assay: Hypoglycemic activity in glucose-fed rabbit assessed as reduction of plasma glucose at 50 mg/kg, po after 1.5 hrs
[14] = test system: Oryctolagus cuniculus; assay: Hypoglycemic activity in rabbit assessed as reduction of plasma glucose at 50 mg/kg, po after 2 hrs

For `c1ccc(Nc2ccccc2)cc1` [DIPHENYLAMINE], the Activity [1] was 154.6 mg%, the Activity [2] was 77.2 mg% and the Activity [3] was 61.4%. It also gave an Activity [4] of 102.2 mg%, an Activity [5] of 140.2 mg% and an Activity [6] of 71.8 mg%. For the same molecule, the Activity [7] was 80.2 mg%.
For `CCCCNC(=O)NS(=O)(=O)c1ccc(C)cc1` [TOLBUTAMIDE], the Activity [8] was 154.3 mg%, the Activity [9] was 104 mg% and the Activity [10] was 104.2 mg%. It also gave an Activity [11] of 95.1 mg%, an Activity [12] of 129 mg% and an Activity [13] of 125.2 mg%. The Activity [14] was 44.1%.
